# Reference: the supplement of paper PMC4862054
# What was measured:
# Details in all cases: 72 h
# HCC1937 = system: HCC1937
# Summary of the method: (§1)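 Breast cancer cell lines (20 µl suspension) were seeded into 384-well plates holding compound at 5 concentrations in 10-fold steps over a compound-specific 10,000-fold range, then incubated 72 h. Cell death was read first by CellTox Green fluorescence (485/520 nm), then viability by CellTiter-Glo luminescence after 10 min at room temperature. Each plate was normalised to 0.1 % DMSO and a positive kill control. EC50 was fitted from the dose-response curves and censored at the top concentration.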
# MDA-MB-468 = system: MDA-MB-468
# Summary of the method: as §1
# BT-549 = system: BT-549
# Summary of the method: as §1
# MCF-10A = system: MCF-10A
# Summary of the method: as §1
# CAL-148 [1] = system: CAL-148
# Summary of the method: as §1
# CAL-148 [2] = system: CAL-148; remark: listed apart in the source
# Summary of the method: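 The reported EC50 was fitted from percent-inhibition dose-response curves and censored at the highest concentration. Breast cancer cell lines (20 µl suspension) were added to 384-well plates containing compound in 5 µl medium and incubated 72 h, and viability was read with 2.5 µl CellTiter-Blue over 2 h at 37 °C at 560/590 nm. Each plate was normalised to vehicle and a positive kill control and checked by Z'-factor, and rows with zero drug sensitivity score were dropped.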
# Hs578T = system: Hs578T
# Summary of the method: as §1
# HCC1599 = system: HCC1599
# Summary of the method: as §1
# HCC1143 = system: HCC1143
# Summary of the method: as §1
# MDA-MB-453 = system: MDA-MB-453
# Summary of the method: as §1
# CAL-120 = system: CAL-120
# Summary of the method: as §1
# HDQ-P1 = system: HDQ-P1
# Summary of the method: as §1
SMILES,"EC50, CellTox Green (HCC1937) [nM]","EC50, CellTox Green (MDA-MB-468) [nM]","EC50, CellTox Green (MCF-10A) [nM]","EC50, CellTox Green (CAL-148 [1]) [nM]","EC50, CellTiter-Blue viability (CAL-148 [2]) [nM]","EC50, CellTox Green (Hs578T) [nM]","EC50, CellTox Green (CAL-120) [nM]",other results
COC(=O)c1ccc2c(c1)NC(=O)/C2=C(\Nc1ccc(N(C)C(=O)CN2CCN(C)CC2)cc1)c1ccccc1 [Nintedanib],1650,5880,7350,,,,,"EC50, CellTox Green (BT-549): 6880 nM"
c1ccc2c(CCNc3ccc(Nc4ccncc4)cc3)c[nH]c2c1 [Serdemetan],,,,2310,4530,,,
Cc1cc(Nc2cc(CN3CCOCC3)c3nc(C)c(Cc4ccc(Cl)cc4F)n3n2)n[nH]1 [Gandotinib],,4500,,,,2040,,
CCOC(=O)CCNc1cc(N2CCc3ccccc3CC2)nc(-c2ccccn2)n1 [GSK-J4],24100,8140,18100,10900,,2280,20000,"EC50, CellTox Green (BT-549): 17800 nM; EC50, CellTox Green (HCC1599): 5440 nM; EC50, CellTox Green (HCC1143): 321 nM; EC50, CellTox Green (MDA-MB-453): 22600 nM; EC50, CellTox Green (HDQ-P1): 9770 nM"
Nc1cc(C(F)(F)F)c(-c2cc(N3CCOCC3)nc(N3CCOCC3)n2)cn1 [Buparlisib],,,8430,,,5580,,"EC50, CellTox Green (BT-549): 7700 nM"
Cc1ccc(NC(=O)c2ccc(CN3CCN(C)CC3)cc2)cc1Nc1nc(-c2cccnc2)cs1 [Masitinib],,7160,,,,,,"EC50, CellTox Green (HCC1599): 8820 nM"
O=C(Nc1ccncc1)C(=O)c1cn(Cc2ccc(Cl)cc2)c2ccccc12 [Indibulin],,1640,,,5000,3450,,
NC(=O)c1ccc(I)c([N+](=O)[O-])c1 [Iniparib],,,,,,,> 10000,
COCC[n+]1c2c(n(Cc3cnccn3)c1C)C(=O)c1ccccc1C2=O [YM155],24.8,9.24,12.8,34.2,11.6,2600,6.34,"EC50, CellTox Green (BT-549): 272 nM; EC50, CellTox Green (HCC1599): 58.5 nM; EC50, CellTox Green (HCC1143): 1.59 nM; EC50, CellTox Green (MDA-MB-453): 347 nM; EC50, CellTox Green (HDQ-P1): 33 nM"
O=C(/C=C/c1cccc(S(=O)(=O)Nc2ccccc2)c1)NO [Belinostat],,3690,30.4,1070,322,1260,1410,"EC50, CellTox Green (MDA-MB-453): > 10000 nM"
COc1cc2c(NC3CCN(C(C)C)CC3)nc(N3CCC(F)(F)CC3)nc2cc1OCCCN1CCCC1 [UNC0642],7070,3390,4920,8400,,,,"EC50, CellTox Green (MDA-MB-453): 7170 nM"
Cc1[nH]c2ccccc2c1CCNCc1ccc(/C=C/C(=O)NO)cc1 [Panobinostat],71,133,579,18.6,12.9,28.6,68.4,"EC50, CellTox Green (HCC1599): 112 nM; EC50, CellTox Green (HCC1143): 71.7 nM; EC50, CellTox Green (MDA-MB-453): 43 nM; EC50, CellTox Green (HDQ-P1): 193 nM"
COc1cc(OC2CCN(C)CC2)ccc1Nc1ncc2c(n1)n(C1CCCC1)c(=O)n2C [AZ 3146],,,,,1990,,,"EC50, CellTox Green (HCC1599): > 10000 nM"
CCn1c(-c2nonc2N)nc2cnc(Oc3cccc(NC(=O)c4ccc(OCCN5CCOCC5)cc4)c3)cc21,,> 10000,,,,,,
COc1cc(O)c2c(c1)/C=C/C[C@H](O)[C@H](O)C(=O)/C=C\C[C@H](C)OC2=O [(5Z)-7-Oxozeaenol],305,,,75.8,,253,,
CO[C@H]1C[C@@H]2CC[C@@H](C)[C@@](O)(O2)C(=O)C(=O)N2CCCC[C@H]2C(=O)O[C@H]([C@H](C)C[C@@H]2CC[C@@H](OP(C)(C)=O)[C@H](OC)C2)CC(=O)[C@H](C)/C=C(\C)[C@@H](O)[C@@H](OC)C(=O)[C@H](C)C[C@H](C)/C=C/C=C/C=C/1C [Ridaforolimus],,,,,0.64,,,"EC50, CellTox Green (HDQ-P1): 0.35 nM"
CNC(=O)c1cccc(-c2ccc3c(N4CCOC[C@@H]4C)nc(N4CCOC[C@@H]4C)nc3n2)c1 [AZD2014],,,,130,,,,
Nc1cc(C(F)(F)F)c(-c2cc(N3CCOCC3)nc(N3CCOCC3)n2)cn1 [BKM-120],,,,,1710,,,
CC(C)C[C@@H](C(=O)N[C@H](C(=O)OC1CCCC1)c1ccccc1)[C@H](O)C(=O)NO [Tosedostat],,151,,,2750,> 10000,163,"EC50, CellTox Green (BT-549): 1390 nM; EC50, CellTox Green (HCC1143): 7200 nM; EC50, CellTox Green (HDQ-P1): 851 nM"
CN(C)CCOc1ccc(/C(=C(/CCCl)c2ccccc2)c2ccccc2)cc1 [Toremifene],3450,,,,,,,
COc1cc2ncnc(Nc3ccc(F)c(Cl)c3)c2cc1OCCCN1CCOCC1 [Gefitinib],,,,> 10000,1440,,,
CCc1c2c(nc3ccc(OC(=O)N4CCC(N5CCCCC5)CC4)cc13)-c1cc3c(c(=O)n1C2)COC(=O)[C@]3(O)CC [Irinotecan],,,,304,1170,> 10000,5530,
CNC(=O)c1cc(Oc2ccc(NC(=O)Nc3ccc(Cl)c(C(F)(F)F)c3)c(F)c2)ccn1 [Regorafenib],4880,,,,,,,
